Assay results reported in article PMC12567398, “New Assay Systems to Characterize the Broad-Spectrum Antiherpesviral and Non-Herpesviral Activity of Cyclin-Dependent Kinase (CDK) 8 Inhibitors” (Pharmaceuticals, 2025).
Where two headings read alike, the source gives them in different places.

Legend:
in vitro [1] = conditions: human
[2] = tested on: Epstein–Barr virus P3HR-1; experiment: EBV lytic assay in TPA-induced P3HR-1 cells, qPCR; assay type: cell-based; conditions: human gammaherpesvirus 4, 240 h; EBV; TPA-induced P3HR-1, 10 d; read-out: Antiviral mean EC50 based on qPCR measurements
[3] = Neutral Red uptake cell viability assay, COS-7; conditions: African green monkey
MHV-68-Luc = MHV-68-Luc luciferase reporter assay; assay type: cell-based, murine herpesvirus 68; conditions: Murine herpesvirus
[4] = Neutral Red uptake cell viability assay, HFF; conditions: human
[5] = Neutral Red uptake cell viability assay, Vero; conditions: African green monkey
[6] = Neutral Red uptake cell viability assay, MEF; conditions: mouse
vaccinia virus VV IHD-5 = experiment: microbe, parasite or virus in culture; assay type: cell-based; conditions: Orthopoxvirus vaccinia, 48 h, read-out: Antiviral mean EC50 based on luciferase measurements
[7] = Neutral Red uptake / Alamar Blue cell viability assay, 293T; conditions: human
HHV-6A-GFP = experiment: HHV-6A plaque reduction assay in HFFs; conditions: Human betaherpesvirus 6A, read-out: Antiviral mean EC50 based on plaque assay measurements
EHV-1-GFP = EHV-1-GFP antiviral assay, GFP fluorometry; assay type: cell-based, equine herpesvirus 1
in vitro [8] = conditions: human, CC50
in vitro [9] = conditions: mouse
in vitro [10] = conditions: African green monkey
[11] = CC50, COS-7, listed with GFP / COS-7 (Fig 1E)
[12] = mean CC50, HFF, HHV-6A assay conditions (Fig 2D)
[13] = CC50, Vero, reference compounds (Fig 1E)

Nc1ncnc2c1ncn2CCOCP(=O)(O)O [AFV, adefovir]
CC50 (in vitro [1]): > 100 µM
EC50 [2]: 13 ± 5 µM

CC(C)Nc1nc2cc(Cl)c(Cl)cc2n1[C@H]1O[C@@H](CO)[C@H](O)[C@@H]1O [MBV, maribavir]
CC50 at 4 d ([3]; CC50, COS-7 (Fig 4F)): > 100 µM
EC50 (MHV-68-Luc; COS-7, MHV-68-Luc, COS-7): > 50 µM
EC50 (MHV-68-Luc; MHV-68-Luc, HFF): 269 ± 55.5 µM
EC50 (MHV-68-Luc; MHV-68-Luc, MEF): 59.6 ± 2.2 µM
EC50 (MHV-68-Luc; Vero, MHV-68-Luc): 88.9 ± 13.6 µM
CC50 ([4]; CC50, HFF (Fig 4F)): 163 ± 9 µM
CC50 at 7 d ([5]; CC50, Vero (Fig 4F)): > 1000 µM
CC50 at 7 d [6]: 179 ± 10 µM

CC(C)(C)C(=O)OCOP(=O)(COCCn1cnc2c(N)ncnc21)OCOC(=O)C(C)(C)C [ADV, adefovir dipivoxil]
CC50 at 10 d (in vitro [1]): 93 µM
EC50 [2]: 1.7 ± 0.2 µM

COc1cccc(N2CCN(C3=Nc4c(F)cccc4[C@H](CC(=O)O)N3c3cc(C(F)(F)F)ccc3OC)CC2)c1 [LMV, letermovir]
EC50 (MHV-68-Luc; MHV-68-Luc, HFF): > 50 µM
EC50 (MHV-68-Luc; MHV-68-Luc, MEF): > 50 µM
EC50 (MHV-68-Luc; Vero, MHV-68-Luc): 44 ± 3.2 µM
EC50 (vaccinia virus VV IHD-5): > 50 µM

CCCCCCCCCCCCCCCCOCCCOP(=O)(O)CO[C@H](CO)Cn1ccc(N)nc1=O [BCV, brincidofovir]
CC50 at 4 d ([3]; CC50, COS-7 (Fig 4F)): > 10 µM
CC50 at 4 d [3, 11]: 9.8 ± 1.9 µM
EC50 (MHV-68-Luc; COS-7, MHV-68-Luc, COS-7): 0.2 ± 0.04 µM
EC50 (MHV-68-Luc; MHV-68-Luc, HFF): > 0.5 µM
EC50 (MHV-68-Luc; MHV-68-Luc, MEF): 0.1 ± 0.07 µM
EC50 (MHV-68-Luc; Vero, MHV-68-Luc): 0.01 ± 0.003 µM
EC50 (vaccinia virus VV IHD-5): 1.9 ± 0.4 µM
CC50 at 2 d [7]: > 10 µM
CC50 ([4]; CC50, HFF, reference compounds (Fig 1E)): 19 ± 3 µM
CC50 [4, 12]: > 10 µM
CC50 at 7 d ([5]; CC50, Vero (Fig 4F)): > 10 µM
CC50 at 7 d [5, 13]: 1.3 ± 1.4 µM
EC50 (HHV-6A-GFP): 0.002 ± 0.001 µM
CC50 at 7 d [6]: > 10 µM
EC50 (EHV-1-GFP): 0.03 ± 0.01 µM
EC50 (EHV-1-GFP; COS-7): 0.04 ± 0.003 µM
EC50 (EHV-1-GFP; Equus caballus, Vero): 0.002 ± 0.003 µM

Nc1ccn(C[C@@H](CO)OCP(=O)(O)O)c(=O)n1 [CDV, cidofovir]
CC50 at 4 d [3, 11]: 85.6 ± 6.6 µM
CC50 [4, 12]: > 100 µM
CC50 at 7 d [5, 13]: > 100 µM
EC50 (HHV-6A-GFP): 0.4 ± 0.1 µM
EC50 (EHV-1-GFP; COS-7): 3.2 ± 3.8 µM
EC50 (EHV-1-GFP; Equus caballus, Vero): 4.5 ± 2.4 µM

O=C(O)P(=O)(O)O [FOS, foscarnet]
EC50 (MHV-68-Luc; MHV-68-Luc, HFF): > 500 µM
EC50 (MHV-68-Luc; MHV-68-Luc, MEF): 41.5 ± 17.5 µM
EC50 (MHV-68-Luc; Vero, MHV-68-Luc): 36.4 ± 10.8 µM
CC50 ([4]; CC50, HFF (Fig 4F)): > 1000 µM
CC50 at 7 d ([5]; CC50, Vero (Fig 4F)): > 1000 µM
CC50 at 7 d [6]: > 1000 µM

Nc1nc2c(ncn2COCCO)c(=O)[nH]1 [ACV, aciclovir]
CC50 (in vitro [8]): > 100 µM
EC50 (MHV-68-Luc; MHV-68-Luc, HFF): > 5 µM
EC50 (MHV-68-Luc; MHV-68-Luc, MEF): 22.2 ± 5.5 µM
EC50 (MHV-68-Luc; Vero, MHV-68-Luc): 0.3 ± 0.3 µM
CC50 at 7 d (in vitro [9]): > 100 µM
CC50 at 7 d (in vitro [10]): > 100 µM
